What was measured:
Test in all cases: relative viability (nuclei count vs DMSO), 5 days (fraction); higher = more cells survive
NCI-H1395 = system: NCI-H1395
How it was run: (§1)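 Lung cancer cell lines, seeded in 1536-well plates, were treated the following day by pin tool with a single drug or with five library-drug doses (not always all listed) in √10 steps on top of a fixed anchor-drug dose. Cells were fixed and nuclei stained in one step after 5 days, and nuclei were counted. Relative viability is the nuclei count for treated wells divided by that for vehicle wells, reported as medians of duplicate plates.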

HARA = system: HARA
How it was run: as §1

SK-MES-1 = system: SK-MES-1
How it was run: as §1

NCI-H1944 = system: NCI-H1944
How it was run: as §1

NCI-H2342 = system: NCI-H2342
How it was run: as §1

EPLC-272H = system: EPLC-272H
How it was run: as §1

NCI-H358 = system: NCI-H358
How it was run: as §1

NCI-H661 = system: NCI-H661
How it was run: as §1

COR-L23 = system: COR-L23
How it was run: as §1

HCC-827 = system: HCC-827
How it was run: as §1

NCI-H1792 = system: NCI-H1792
How it was run: as §1

NCI-H1437 = system: NCI-H1437
How it was run: as §1

CCCCCCCCCCCC1=C(O)C(=O)C=C(O)C1=O [Embelin] + CCNC(=O)c1noc(-c2cc(C(C)C)c(O)cc2O)c1-c1ccc(CN2CCOCC2)cc1 [Luminespib] (partner 0.01 µM)
relative viability (NCI-H1395; first compound 0.08 µM): 0.741 | relative viability (NCI-H1395; first compound 0.8 µM): 0.928 | relative viability (NCI-H1395; first compound 2.53 µM): 0.783 | relative viability (NCI-H1395; first compound 8 µM): 0.631 | relative viability (HARA; first compound 0.08 µM): 0.832 | relative viability (HARA; first compound 0.8 µM): 0.919 | relative viability (HARA; first compound 2.53 µM): 0.987 | relative viability (HARA; first compound 8 µM): 0.821 | relative viability (SK-MES-1; first compound 0.08 µM): 0.723 | relative viability (SK-MES-1; first compound 0.8 µM): 1.05 | relative viability (SK-MES-1; first compound 2.53 µM): 0.918 | relative viability (SK-MES-1; first compound 8 µM): 0.695 | relative viability (NCI-H1944; first compound 0.08 µM): 0.726 | relative viability (NCI-H1944; first compound 0.8 µM): 0.849 | relative viability (NCI-H1944; first compound 2.53 µM): 0.882 | relative viability (NCI-H1944; first compound 8 µM): 0.78 | relative viability (NCI-H2342; first compound 0.08 µM): 0.758 | relative viability (NCI-H2342; first compound 0.8 µM): 0.902 | relative viability (NCI-H2342; first compound 2.53 µM): 0.826 | relative viability (NCI-H2342; first compound 8 µM): 0.645 | relative viability (EPLC-272H; first compound 0.08 µM): 0.69 | relative viability (EPLC-272H; first compound 0.8 µM): 0.222 | relative viability (EPLC-272H; first compound 2.53 µM): 0.253 | relative viability (EPLC-272H; first compound 8 µM): 0.266 | relative viability (NCI-H358; first compound 0.08 µM): 0.464 | relative viability (NCI-H358; first compound 0.8 µM): 0.447 | relative viability (NCI-H358; first compound 2.53 µM): 0.44 | relative viability (NCI-H358; first compound 8 µM): 0.306 | relative viability (NCI-H661; first compound 0.08 µM): 0.924 | relative viability (NCI-H661; first compound 0.8 µM): 1 | relative viability (NCI-H661; first compound 2.53 µM): 0.897 | relative viability (NCI-H661; first compound 8 µM): 0.85 | relative viability (COR-L23; first compound 0.08 µM): 0.773 | relative viability (COR-L23; first compound 0.8 µM): 0.73 | relative viability (COR-L23; first compound 2.53 µM): 0.911 | relative viability (COR-L23; first compound 8 µM): 0.763 | relative viability (HCC-827; first compound 0.08 µM): 0.857 | relative viability (HCC-827; first compound 0.8 µM): 0.885 | relative viability (HCC-827; first compound 2.53 µM): 0.864 | relative viability (HCC-827; first compound 8 µM): 0.657 | relative viability (NCI-H1792; first compound 0.08 µM): 0.363 | relative viability (NCI-H1792; first compound 0.8 µM): 0.515 | relative viability (NCI-H1792; first compound 2.53 µM): 0.46 | relative viability (NCI-H1792; first compound 8 µM): 0.516 | relative viability (NCI-H1437; first compound 0.08 µM): 1.17 | relative viability (NCI-H1437; first compound 0.8 µM): 1.17
